This passage reports TGI results from PubChem BioAssay (NCI).

The structures appear in SMILES notation.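 Each compound was tested at five concentrations against cells in 96-well plates for 48 hours. TGI is the concentration that stops growth completely.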

Some test systems named below: MOLT-4 leukemia; UACC-62 melanoma; ACHN renal; OVCAR-8 ovarian; UO-31 renal; CCRF-CEM leukemia; UACC-257 melanoma; HL-60(TB) leukemia; KM12 colon; K-562 leukemia; SF-539 CNS; NCI/ADR-RES ovarian; COLO 205 colon; SF-268 CNS; SW-620 colon; RXF 393 renal.
Experiment in all cases: growth of human tumour cells (NCI), 48 h

In the case of `O=C(O)c1cccc(Nc2c(C(=O)O)cccc2[N+](=O)[O-])c1`, the TGI with MOLT-4 leukemia, in the experiment with UACC-62 melanoma, in the experiment with ACHN renal, in the experiment on OVCAR-8 ovarian, with UO-31 renal and in the experiment on CCRF-CEM leukemia was > 100 µM throughout. The TGI in the experiment with UACC-257 melanoma, with HL-60(TB) leukemia, with KM12 colon, with K-562 leukemia, in the experiment on SF-539 CNS and in the experiment on NCI/ADR-RES ovarian was > 100 µM throughout. Besides, the TGI with COLO 205 colon was > 100 µM.
Consider `COc1cccc(Nc2nc(C)c([N+](=O)[O-])c(Nc3cccc(OC)c3)n2)c1`, for which the TGI is 30.2 µM in the experiment on MOLT-4 leukemia; 38.8 µM in the experiment on UACC-62 melanoma; > 100 µM in the experiment on ACHN renal; > 100 µM with OVCAR-8 ovarian; > 100 µM in the experiment with UO-31 renal; 46.7 µM with UACC-257 melanoma. The TGI in the experiment with HL-60(TB) leukemia is > 100 µM; in the experiment with SF-268 CNS, > 100 µM; with K-562 leukemia, > 100 µM; with SF-539 CNS it was > 100 µM; with SW-620 colon, > 100 µM; in the experiment on RXF 393 renal, 35.2 µM. The TGI turned out to be 14.4 µM in the experiment on NCI/ADR-RES ovarian and 44.9 µM in the experiment on COLO 205 colon.
`Cc1nc(N)c(N2CCN(S(N)(=O)=O)CC2)c(=O)[nH]1`: the TGI in the experiment on MOLT-4 leukemia, with ACHN renal, in the experiment with OVCAR-8 ovarian, in the experiment with UO-31 renal, in the experiment with CCRF-CEM leukemia and in the experiment on UACC-257 melanoma was > 100 µM throughout. Also, the TGI with HL-60(TB) leukemia, in the experiment on KM12 colon, with SF-268 CNS, with K-562 leukemia, in the experiment on SF-539 CNS and in the experiment on SW-620 colon was > 100 µM in each case. Further, the TGI in the experiment on NCI/ADR-RES ovarian and in the experiment with COLO 205 colon was > 100 µM throughout.
As to `Cc1c(N=Nc2ccccc2)c(-c2ccccc2)n(C2OC(CO)C(O)C(O)C2O)c(=S)c1C#N` (stereo not drawn), the TGI with MOLT-4 leukemia is 24.5 µM; in the experiment on UACC-62 melanoma, 13 µM; in the experiment with ACHN renal, 18.8 µM; in the experiment on OVCAR-8 ovarian, > 100 µM; in the experiment on UO-31 renal, 39.4 µM; in the experiment with HL-60(TB) leukemia, > 100 µM. Moreover, the TGI with KM12 colon was 11.6 µM; in the experiment with SF-268 CNS, 37 µM; in the experiment with K-562 leukemia, > 100 µM; in the experiment on SF-539 CNS, 20.6 µM; in the experiment on SW-620 colon, 24.2 µM; in the experiment with RXF 393 renal it was 10.3 µM. Besides, the results for the TGI in the experiment on NCI/ADR-RES ovarian and in the experiment on COLO 205 colon were 46.6 µM and 31.3 µM, respectively.
For `C/C(Cl)=N/OC(=O)Nc1ccc(F)c([N+](=O)[O-])c1`, the TGI in the experiment on MOLT-4 leukemia is 3.9 µM; in the experiment on UACC-62 melanoma it was > 63.2 µM; with ACHN renal, 8.23 µM; in the experiment on OVCAR-8 ovarian, 31.7 µM; with UO-31 renal, 20.5 µM; with UACC-257 melanoma it was 53.2 µM. Moreover, the TGI is 6.02 µM with HL-60(TB) leukemia; 33.8 µM in the experiment with KM12 colon; 32.8 µM in the experiment with SF-268 CNS; > 23.9 µM with K-562 leukemia; > 100 µM in the experiment with SF-539 CNS; 25.6 µM with SW-620 colon. Further, the values for the TGI in the experiment with RXF 393 renal, in the experiment on NCI/ADR-RES ovarian and in the experiment on COLO 205 colon were 25.4 µM, > 100 µM and 5.38 µM, respectively.
As to `C1C2CC3CC1CC(c1nn4c(C56CC7CC(CC(C7)C5)C6)nnc4s1)(C2)C3`, the TGI in the experiment on MOLT-4 leukemia, in the experiment with UACC-62 melanoma, in the experiment on ACHN renal, in the experiment on UO-31 renal, in the experiment on CCRF-CEM leukemia and in the experiment with HL-60(TB) leukemia was > 100 µM throughout. The TGI in the experiment with KM12 colon, in the experiment with SF-268 CNS, in the experiment with K-562 leukemia, with SF-539 CNS, in the experiment with SW-620 colon and in the experiment with RXF 393 renal was > 100 µM throughout. Besides, the TGI with NCI/ADR-RES ovarian and with COLO 205 colon was > 100 µM throughout.
With `CC1=NN(c2cccc(S(=O)(=O)O)c2)C2(C1)C(Cl)C(=O)N2c1nc2ccccc2s1` (stereo not drawn), the TGI with MOLT-4 leukemia is 11.8 µM; in the experiment on UACC-62 melanoma it was 19.1 µM; in the experiment on ACHN renal, 18.4 µM; in the experiment on OVCAR-8 ovarian, 19.1 µM; in the experiment with UO-31 renal, 8.27 µM; with CCRF-CEM leukemia, 3.67 µM. For the same compound, the TGI is 28.3 µM in the experiment on UACC-257 melanoma; 7.16 µM with HL-60(TB) leukemia; 27.4 µM in the experiment on KM12 colon; 22.9 µM in the experiment with SF-268 CNS; > 41.4 µM in the experiment on K-562 leukemia; 21.1 µM with SW-620 colon. The TGI worked out at 22.8 µM in the experiment with RXF 393 renal, 26.8 µM with NCI/ADR-RES ovarian and 24.8 µM with COLO 205 colon.
For `CC1=NN(c2ccccc2)C2(C1)C(Cl)C(=O)N2c1nc2ccccc2s1` (stereo not drawn), the TGI in the experiment with MOLT-4 leukemia is 78.6 µM; in the experiment with UACC-62 melanoma, > 100 µM; with ACHN renal, > 100 µM; with OVCAR-8 ovarian it was > 100 µM; in the experiment with UO-31 renal, > 100 µM; in the experiment on CCRF-CEM leukemia it was 48.8 µM. Further, the TGI was > 100 µM in the experiment with UACC-257 melanoma; 55.5 µM in the experiment on HL-60(TB) leukemia; > 100 µM with KM12 colon; > 100 µM with SF-268 CNS; > 100 µM in the experiment on K-562 leukemia; > 100 µM in the experiment with SW-620 colon. Further, the TGI in the experiment with RXF 393 renal stood at 97.7 µM; with NCI/ADR-RES ovarian it was 68.5 µM; with COLO 205 colon, 80.6 µM.
For `CC(=O)OCC(OC(C)=O)C1C[C@H]2O[C@@H]3[C@H](C[C@H]2O1)O[C@@]1(C[C@@H]3C)C[C@H](C)[C@@H]2O[C@]3(C[C@@H]2O1)C[C@H]1O[C@H]2[C@H](C)[C@H]4OC(=O)C[C@H]5CC[C@@H]6OC7[C@H]8O[C@]9(CC[C@H]%10CC(=O)[C@H](CC[C@H]%11C[C@@H](C)C(=O)C(C[C@@H]4O[C@H]2C[C@H]1O3)O%11)O%10)CC8O[C@@H]7[C@@H](O9)[C@H]6O5` (stereo partly drawn), the TGI with MOLT-4 leukemia is > 1 µM; with UACC-62 melanoma, > 1 µM; with ACHN renal it was > 1 µM; with OVCAR-8 ovarian, > 0.258 µM; in the experiment on UO-31 renal, > 1 µM; with CCRF-CEM leukemia, > 1 µM. The TGI is > 1 µM with HL-60(TB) leukemia; > 0.2 µM with KM12 colon; > 1 µM in the experiment on SF-268 CNS; > 1 µM in the experiment with K-562 leukemia; > 1 µM with SW-620 colon; > 1 µM in the experiment with RXF 393 renal. Further, the values for the TGI in the experiment on NCI/ADR-RES ovarian and in the experiment with COLO 205 colon were > 0.566 µM and 0.0749 µM, respectively.
